Data on 5 compounds can be found in ChEMBL document CHEMBL4387715, “Singlet oxygen-activatable Paclitaxel prodrugs via intermolecular activation for combined PDT and chemotherapy” (Bioorg Med Chem Lett, 2019).

The structures appear in SMILES notation. Active and inactive are the calls of the source. No cut-off for these calls is given here.

A short description of data set [1]: Lipophilicity, log D of the compound at pH 7.4. The data set is classed as physicochemical. The conditions noted are these: buffer.
Data set [2] is described as follows: Photodynamic anticancer activity against rat AY27 cells assessed as cell death at 0.5 uM incubated for 2 hrs followed by 10 mW/cm2 laser light irradiation for 30 mins and measured after 24 hrs by MTT assay relative to control. In kind it is functional, AY-27. Background: Tetrazolium assays rely on reduction of a dye to a coloured formazan, in cell work by metabolically active cells.

Data set [3] can be described thus: Drug localization in mitochondria of rat AY27 cells at 0.5 uM assessed as protoporphyrin IX level after 2 hrs by Mitotracker deep Red staining-based confocal fluorescence microscopic method. In kind it is ADME. To be noted: ay-27, 2 h.
The nature of data set [4]: Dark toxicity in rat AY27 cells assessed as reduction in cell viability at 0.025 to 1.25 uM preincubated for 2 hrs followed by 30 mins incubation under dark condition measured after 24 hrs in presence of Hexyl-5-aminolevulinic acid by MTT assay. The data set is classed as cell-based. To be noted: ay-27, 1.25 µM.
Data set [5] can be described thus: Dark toxicity in rat AY27 cells assessed as reduction in cell viability at 0.025 to 1.25 uM preincubated for 2 hrs followed by 30 mins incubation under dark condition and measured after 24 hrs by MTT assay. To be noted: ay-27, 1.25 µM. In kind it is cell-based.
Data set [6] in a line: Photocytotoxicity against rat AY27 cells assessed as cell death at 0.25 uM incubated for 2 hrs followed by 10 mW/cm2 laser light irradiation for 30 mins and measured after 24 hrs in presence of Hexyl-5-aminolevulinic acid by MTT assay relative to control. The data set is classed as functional, AY-27.
Data set [7] is described as follows: Lipophilicity, log D of the compound at pH 7.4 by shake flask method. In kind it is physicochemical. To be noted: buffer.
In a further data set the test system is AY-27. Kind of data set: Photocytotoxicity against rat AY27 cells assessed as cell death at 0.025 to 1.25 uM incubated for 2 hrs followed by 10 mW/cm2 laser light irradiation for 30 mins and measured after 24 hrs by MTT assay. In kind it is functional, cell-based.
Data set [8] can be described thus: Drug uptake in rat AY27 cells at 1 uM by texas red probe-based fluorescence microscopy. The data set is classed as ADME, cell-based. To be noted: ay-27, 1 µM, TDE = time-dependent effect.
Data set [9] can be described thus: Drug localization in mitochondria of rat AY27 cells at 0.5 uM after 30 mins by Mitotracker deep Red staining-based confocal fluorescence microscopy. The data set is classed as ADME. To be noted: ay-27, 0.5 h.
The nature of data set [10]: Drug uptake in rat AY27 cells assessed per cell at 5 uM measured after 120 mins by fluorescence assay. In kind it is ADME, cell-based. To be noted: ay-27, 2 h.

As usually defined, the logD is lipophilicity at a set pH, counting ionised and neutral species. Higher therefore signals higher lipophilicity. As for `CC(=O)O[C@H]1C(=O)[C@@]2(C)[C@H]([C@H](OC(=O)c3ccccc3)[C@]3(O)C[C@H](OC(=O)[C@H](O)[C@@H](NC(=O)c4ccccc4)c4ccccc4)C(C)=C1C3(C)C)[C@]1(OC(C)=O)CO[C@@H]1C[C@@H]2O` [PACLITAXEL], the logD in [1] came out at 3.6.

For the compound `CCCCCCOC(=O)CCC(=O)CN` [HEXAMINOLEVULINATE], in [2], the Activity is 40%. For the same compound, the Drug uptake result in data set [3] is on record as “Active”.

For `CC(=O)O[C@H]1C(=O)[C@@]2(C)[C@H]([C@H](OC(=O)c3ccccc3)[C@]3(O)C[C@H](OC(=O)C(OC(=O)/C=C/N4CCC(COC(=O)c5cc[n+](C)cc5)CC4)[C@@H](NC(=O)c4ccccc4)c4ccccc4)C(C)=C1C3(C)C)[C@]1(OC(C)=O)CO[C@@H]1C[C@@H]2O.[Cl-]` (stereo partly specified), the Activity entry in data set [4] is “Non-Toxic”; in [5] it was “Non-Toxic”; in [6], 82%. The same compound registered a logD in data set [7] of 1. Moreover, the outcome in the data set on AY-27 was inactive.

As to `CCN(CC)c1ccc2c(-c3ccccc3C(=O)OCC3CCN(/C=C/C(=O)OC(C(=O)O[C@H]4C[C@@]5(O)[C@@H](OC(=O)c6ccccc6)[C@@H]6[C@]7(OC(C)=O)CO[C@@H]7C[C@H](O)[C@@]6(C)C(=O)[C@H](OC(C)=O)C(=C4C)C5(C)C)[C@@H](NC(=O)c4ccccc4)c4ccccc4)CC3)c3ccc(=[N+](CC)CC)cc-3oc2c1.[Cl-]` (stereo partly specified), the Activity entry was “Non-Toxic” in data set [4], “Non-Toxic” in data set [5] and 84% in data set [6]. In addition, the Drug uptake entry in data set [8] was “Tde”; in data set [9] it was “Active”; in data set [10], 0.68 fmol. The compound also came in with a logD in [7] of 1.9. Moreover, the outcome in the data set with AY-27 was inactive.

As to `CC(=O)O[C@H]1C(=O)[C@@]2(C)[C@H]([C@H](OC(=O)c3ccccc3)[C@]3(O)C[C@H](OC(=O)C(OC(=O)/C=C/N4CCC(COCCC[P+](c5ccccc5)(c5ccccc5)c5ccccc5)CC4)[C@@H](NC(=O)c4ccccc4)c4ccccc4)C(C)=C1C3(C)C)[C@]1(OC(C)=O)CO[C@@H]1C[C@@H]2O.[Br-]` (stereo partly specified), the results for the Activity result in data set [4], in [5] and in [6] were “Non-Toxic”, “Non-Toxic” and 80%, respectively. Further, the pH-dependent lipophilicity (logD) in [7] turned out to be 1.3. Moreover, in the data set on AY-27, the outcome was inactive.
